These compounds were tested on SARS-CoV-2 (assay: Anti-SARS-CoV-2 activity in A549 cells expressing the human ACE2 receptor (inhibition of SARS-CoV-2 replication)). Conditions: Severe acute respiratory syndrome coronavirus 2, A549-ACE2, 24 h, read-out: Antiviral Activity (EC50).
Assay type: cell-based

`O=C(NC1CC(F)(F)C1)c1cc(Cl)cc([N+](=O)[O-])c1N[C@H]1CN(C(=O)c2cncc3ccccc23)CCC1(F)F` [Compound 158, (S)-5-chloro-2-((4,4-difluoro-1-(isoquinoline-4-carbonyl)piperidin-3-yl)amino)-N-(3,3-difluorocyclobutyl)-3-nitrobenzamide] and `O=C(NC1CC(F)(F)C1)c1cc(Br)cc([N+](=O)[O-])c1N[C@H]1CN(C(=O)c2cncc3ccccc23)CCC1(F)F` [Compound 33, (S)-5-bromo-2-((4,4-difluoro-1-(isoquinoline-4-carbonyl)piperidin-3-yl)amino)-N-(3,3-difluorocyclobutyl)-3-nitrobenzamide] cannot be ordered by EC50: < 100 nM for the first, < 100 nM for the second.

First: C[C@H](NC(=O)c1cc(Br)cc([N+](=O)[O-])c1N[C@@H]1COCC[C@@H]1NC(=O)c1cncc2ccccc12)C(F)(F)F [Compound 135, N-((3S, 4S)-3-((4-bromo-2-nitro-6-(((S)-1,1,1-trifluoropropan-2-yl)carbamoyl)phenyl)amino)tetrahydro-2H-pyran-4-yl)isoquinoline-4-carboxamide]
Second: CC(NC(=O)c1cc(Br)cc([N+](=O)[O-])c1N[C@@H]1CCCC[C@@H]1NC(=O)c1cncc2ccccc12)C(F)(F)F (stereo partly drawn) [Compound 60, N-((1S, 2R)-2-((4-bromo-2-nitro-6-((1,1,1-trifluoropropan-2-yl)carbamoyl)phenyl)amino)cyclohexyl)isoquinoline-4-carboxamide]
The EC50 of the first is lower: < 100 nM for the first, 100 to 1000 nM for the second.

`CNC(=O)c1cc(Br)cc([N+](=O)[O-])c1N[C@H]1CN(C(=O)c2cncc3ccccc23)CC[C@H]1F` [Compound 88, 5-bromo-2-(((3S, 4R)-4-fluoro-1-(isoquinoline-4-carbonyl)piperidin-3-yl)amino)-N-methyl-3-nitrobenzamide] was tested, and the EC50 was < 100 nM.

Same assay, conditions: read-out: Antiviral Activity (EC50); inhibition of SARS-CoV-2 replication in mammalian cells; A549-ACE2 cells, 24 hours infection

With `O=C(NC1CCOC1)c1cc(Cl)cc([N+](=O)[O-])c1N[C@H]1CN(C(=O)c2cncc3ccccc23)CCC1(F)F` (stereo in doubt) [Compound 159, 5-chloro-2-(((S)-4,4-difluoro-1-(isoquinoline-4-carbonyl)piperidin-3-yl)amino)-3-nitro-N-((S)-tetrahydrofuran-3-yl)benzamide] the EC50 was < 100 nM.

What follows are compounds tested against SARS-CoV-2 3CLpro (Severe acute respiratory syndrome coronavirus 2, UniProt P0DTD1) (assay: biochemical). Conditions: inhibition of SARS-CoV-2 3CLpro; 15 nM 3CLpro, 25 μM fluorogenic substrate, 37° C.; read-out: Inhibitory Activity (IC50).

`O=C(NC1CC(F)(F)C1)c1cc(Cl)cc([N+](=O)[O-])c1N[C@H]1CN(C(=O)c2cncc3ccccc23)CCC1(F)F` [Compound 158, (S)-5-chloro-2-((4,4-difluoro-1-(isoquinoline-4-carbonyl)piperidin-3-yl)amino)-N-(3,3-difluorocyclobutyl)-3-nitrobenzamide] and `O=C(NC1CC(F)(F)C1)c1cc(Br)cc([N+](=O)[O-])c1N[C@H]1CN(C(=O)c2cncc3ccccc23)CCC1(F)F` [Compound 33, (S)-5-bromo-2-((4,4-difluoro-1-(isoquinoline-4-carbonyl)piperidin-3-yl)amino)-N-(3,3-difluorocyclobutyl)-3-nitrobenzamide] cannot be ordered by IC50: < 100 nM for the first, < 100 nM for the second.

First: C[C@H](NC(=O)c1cc(Br)cc([N+](=O)[O-])c1N[C@@H]1COCC[C@@H]1NC(=O)c1cncc2ccccc12)C(F)(F)F [Compound 135, N-((3S, 4S)-3-((4-bromo-2-nitro-6-(((S)-1,1,1-trifluoropropan-2-yl)carbamoyl)phenyl)amino)tetrahydro-2H-pyran-4-yl)isoquinoline-4-carboxamide]
Second: C[C@@H](NC(=O)c1cc(Br)cc([N+](=O)[O-])c1N[C@@H]1COCC[C@@H]1NC(=O)c1cncc2ccccc12)C(F)(F)F [Compound 136, N-((3S, 4S)-3-((4-bromo-2-nitro-6-(((R)-1,1,1-trifluoropropan-2-yl)carbamoyl)phenyl)amino)tetrahydro-2H-pyran-4-yl)isoquinoline-4-carboxamide]
The IC50 of the first is lower: < 100 nM for the first, 100 to 1000 nM for the second.

First: CC(NC(=O)c1cc(Br)cc([N+](=O)[O-])c1N[C@@H]1CCCC[C@@H]1NC(=O)c1cncc2ccccc12)C(F)(F)F (stereo partly drawn) [Compound 60, N-((1S, 2R)-2-((4-bromo-2-nitro-6-((1,1,1-trifluoropropan-2-yl)carbamoyl)phenyl)amino)cyclohexyl)isoquinoline-4-carboxamide]
Second: NNC(=O)c1cc(Br)cc([N+](=O)[O-])c1N[C@@H]1CCCC[C@@H]1NC(=O)c1cncc2ccccc12 [Compound 54, N-((1S,2R)-2-((4-bromo-2-(hydrazinecarbonyl)-6-nitrophenyl)amino)cyclohexyl)isoquinoline-4-carboxamide]
The IC50 of the first is lower: 100 to 1000 nM for the first, 1000 to 10000 nM for the second. The first is the more potent here.

`CNC(=O)c1cc(Br)cc([N+](=O)[O-])c1N[C@H]1CN(C(=O)c2cncc3ccccc23)CC[C@H]1F` [Compound 88, 5-bromo-2-(((3S, 4R)-4-fluoro-1-(isoquinoline-4-carbonyl)piperidin-3-yl)amino)-N-methyl-3-nitrobenzamide] and `CNC(=O)c1cc(Br)cc([N+](=O)[O-])c1N[C@H]1CN(C(=O)c2cncc3ccccc23)CC[C@@H]1F` [Compound 87, 5-bromo-2-(((3S, 4S)-4-fluoro-1-(isoquinoline-4-carbonyl)piperidin-3-yl)amino)-N-methyl-3-nitrobenzamide] cannot be ordered by IC50: < 100 nM for the first, < 100 nM for the second.

First: CNC(=O)c1cc(Br)cc([N+](=O)[O-])c1N[C@H]1CN(C(=O)c2cncc3ccccc23)C[C@H]1F [Compound 166, 5-bromo-2-[[(3S,4R)-4-fluoro-1-(isoquinoline-4-carbonyl)pyrrolidin-3-yl]amino]-N-methyl-3-nitro-benzamide]
Second: CNC(=O)c1cc(Br)cc([N+](=O)[O-])c1NC1(C2CN(C(=O)c3cncc4ccccc34)C2)CC1 [Compound 63, 5-bromo-2-((1-(1-(isoquinoline-4-carbonyl)azetidin-3-yl)cyclopropyl)amino)-N-methyl-3-nitrobenzamide]
The IC50 of the first is lower: < 100 nM for the first, 1000 to 10000 nM for the second.

First: CNC(=O)c1cc(Br)cc([N+](=O)[O-])c1O[C@@H]1CCCC[C@@H]1NC(=O)c1cncc2ccccc12 [Compound 102, N-[(1S,2R)-2-[4-bromo-2-(methylcarbamoyl)-6-nitro-phenoxy]cyclohexyl]isoquinoline-4-carboxamide]
Second: COC(=O)c1cc(Br)cc([N+](=O)[O-])c1N[C@@H]1CCCC[C@@H]1NC(=O)c1cncc2ccccc12 [Compound 51, methyl 5-bromo-2-(((1R, 2S)-2-(isoquinoline-4-carboxamido)cyclohexyl)amino)-3-nitrobenzoate]
The IC50 of the first is lower: < 100 nM for the first, 100 to 1000 nM for the second. The first is the more potent here.

`COC1CN(C(=O)c2cc(Br)cc([N+](=O)[O-])c2N[C@H]2CN(C(=O)c3cncc4ccccc34)CCC2(F)F)C1` [Compound 38, (S)-(5-bromo-2-((4,4-difluoro-1-(isoquinoline-4-carbonyl)piperidin-3-yl)amino)-3-nitrophenyl)(3-methoxyazetidin-1-yl)methanone] and `CN(C)C(=O)c1cc(Br)cc([N+](=O)[O-])c1N[C@H]1CN(C(=O)c2cncc3ccccc23)CC1(F)F` [Compound 161, (S)-5-bromo-2-((4,4-difluoro-1-(isoquinoline-4-carbonyl)pyrrolidin-3-yl)amino)-N, N-dimethyl-3-nitrobenzamide] cannot be ordered by IC50: < 100 nM for the first, < 100 nM for the second.

Compared with `O=C(NC1CC(F)(F)C1)c1cc(Br)cc([N+](=O)[O-])c1N[C@H]1CN(C(=O)c2cncc3ccccc23)CC(F)(F)C1` [Compound 134, (R)-5-bromo-2-((5,5-difluoro-1-(isoquinoline-4-carbonyl)piperidin-3-yl)amino)-N-(3,3-difluorocyclobutyl)-3-nitrobenzamide], `CC1(NC(=O)c2cc(Cl)cc([N+](=O)[O-])c2N[C@H]2CN(C(=O)c3cncc4ccccc34)CCC2(F)F)CC1` [Compound 152, (S)-5-chloro-2-((4,4-difluoro-1-(isoquinoline-4-carbonyl)piperidin-3-yl)amino)-N-(1-methylcyclopropyl)-3-nitrobenzamide] is lower in IC50: 100 to 1000 nM for the first, < 100 nM for the second. The second is the more potent here.

`O=C(N[C@@H]1CCOC1)c1cc(Br)cc(C(F)(F)F)c1N[C@H]1CN(C(=O)c2cncc3ccccc23)CCC1(F)F` [Compound 182, 5-bromo-2-(((S)-4,4-difluoro-1-(isoquinoline-4-carbonyl)piperidin-3-yl)amino)-N-((R)-tetrahydrofuran-3-yl)-3-(trifluoromethyl)benzamide] and `O=C(N[C@H]1CCOC1)c1cc(Br)cc(C(F)(F)F)c1N[C@H]1CN(C(=O)c2cncc3ccccc23)CCC1(F)F` [Compound 164, 5-bromo-2-(((S)-4,4-difluoro-1-(isoquinoline-4-carbonyl)piperidin-3-yl)amino)-N-((S)-tetrahydrofuran-3-yl)-3-(trifluoromethyl)benzamide] cannot be ordered by IC50: < 100 nM for the first, < 100 nM for the second.

First: CNC(=O)c1cc(Br)cc([N+](=O)[O-])c1N[C@H]1CN(C(=O)c2cccnc2C#N)CCC1(F)F [Compound 114, (S)-5-bromo-2-((1-(2-cyanonicotinoyl)-4,4-difluoropiperidin-3-yl)amino)-N-methyl-3-nitrobenzamide]
Second: CNC(=O)c1cc(Br)cc([N+](=O)[O-])c1N[C@H]1CN(C(=O)c2cc(=O)[nH]c3ccccc23)CCC1(F)F [Compound 103, (S)-5-bromo-2-((4,4-difluoro-1-(2-oxo-1,2-dihydroquinoline-4-carbonyl)piperidin-3-yl)amino)-N-methyl-3-nitrobenzamide]
The IC50 of the first is higher: 1000 to 10000 nM for the first, < 100 nM for the second.

`CNC(=O)c1cc(Br)cc([N+](=O)[O-])c1N[C@@H]1CCCC[C@@H]1NC(=O)c1cncc(OC)c1` [Compound 4, N-((1S, 2R)-2-((4-bromo-2-(methylcarbamoyl)-6-nitrophenyl)amino)cyclohexyl)-5-methoxynicotinamide] and `CNC(=O)c1cc(Br)cc([N+](=O)[O-])c1N[C@@H]1CCCC[C@@H]1NC(=O)c1cncnc1` [Compound 2, N-((1S, 2R)-2-((4-bromo-2-(methylcarbamoyl)-6-nitrophenyl)amino)cyclohexyl) pyrimidine-5-carboxamide] cannot be ordered by IC50: 1000 to 10000 nM for the first, ≥ 10000 nM for the second.

Compared with `CNC(=O)c1cc(Br)cc([N+](=O)[O-])c1O[C@@H]1CN(C(=O)c2cncc3ccccc23)CCC1(F)F` [Compound 179, (R)-5-bromo-2-((4,4-difluoro-1-(isoquinoline-4-carbonyl)piperidin-3-yl)oxy)-N-methyl-3-nitrobenzamide], `CNC(=O)c1cc(Br)cc([N+](=O)[O-])c1Nc1ccccc1NC(=O)c1cncc2ccccc12` [Compound 131, N-(2-((4-bromo-2-(methylcarbamoyl)-6-nitrophenyl)amino)phenyl) isoquinoline-4-carboxamide] is higher in IC50: 100 to 1000 nM for the first, ≥ 10000 nM for the second.

`O=C(c1cc(Br)cc(C(F)(F)F)c1N[C@H]1CN(C(=O)c2cncc3cccnc23)CCC1(F)F)N1CC(O)C1` [Compound 110, (S)-(5-bromo-2-((4,4-difluoro-1-(1,6-naphthyridine-8-carbonyl)piperidin-3-yl)amino)-3-(trifluoromethyl)phenyl)(3-hydroxyazetidin-1-yl)methanone] and `CNC(=O)c1cc(Cl)cc([N+](=O)[O-])c1N[C@H]1CN(C(=O)c2cncc3ccncc23)CC[C@@H]1F` [Compound 171, 5-chloro-2-(((3S, 4S)-4-fluoro-1-(2,6-naphthyridine-4 - carbonyl)piperidin-3-yl)amino)-N-methyl-3-nitrobenzamide] cannot be ordered by IC50: < 100 nM for the first, < 100 nM for the second.

`CNC(=O)c1cc(Br)cc([N+](=O)[O-])c1N[C@@H]1CCCC[C@@H]1NC(=O)c1cncc(CNC(=O)OC(C)(C)C)c1` [Compound 5, tert-butyl ((5-(((1S, 2R)-2-((4-bromo-2-(methylcarbamoyl)-6-nitrophenyl)amino)cyclohexyl)carbamoyl)pyridin-3-yl)methyl)carbamate] and `CNC(=O)c1cc(Br)cc(S(C)(=O)=O)c1N[C@@H]1CCCC[C@@H]1NC(=O)c1cncc2ccccc12` [Compound 57, N-((1S,2R)-2-((4-bromo-2-(methylcarbamoyl)-6-(methylsulfonyl)phenyl)amino)cyclohexyl) isoquinoline-4-carboxamide] cannot be ordered by IC50: ≥ 10000 nM for the first, ≥ 10000 nM for the second.

From US20260315452A1, “PROTEASE INHIBITORS AND USES THEREOF” (priority 2023, published 2026)
